The CheMixHub ionic liquid set

Experiment: xn = mol fraction of the nth substance listed
Details: 100 kPa

C[NH+](C)CCC=C1c2ccccc2CCc2ccccc21.[Cl-] + CCCC[n+]1ccn(C)c1.[Cl-] + O
electrical conductivity [S/m]
Details	298 K	303 K	308 K	313 K	318 K
x2 = 0.00018, x1 = 0.0007057	0.498	0.501	0.511	0.509	0.527
x2 = 0.00018, x1 = 0.0007396	0.512	0.519	0.535	0.522	0.55
x2 = 0.00018, x1 = 0.000773	0.524	0.533	0.538	0.536	0.564
x2 = 0.00018, x1 = 0.0008057	0.543	0.55	0.551	0.561	0.581
x2 = 0.00018, x1 = 0.0008382	0.56	0.564	0.566	0.57	0.595
x2 = 0.00018, x1 = 0.0008701	0.569	0.578	0.58	0.587	0.613
x2 = 0.00018, x1 = 0.0009016	0.579	0.589	0.597	0.602	0.629
x2 = 0.00018, x1 = 0.0009322	0.591	–	0.611	0.62	–
x2 = 0.0001801, x1 = 8.875e-05	0.189	0.186	0.193	0.19	0.188
x2 = 0.0001801, x1 = 0.0001104	0.201	0.198	0.203	0.202	0.202
x2 = 0.0001801, x1 = 0.0001321	0.215	0.209	0.216	0.212	0.21
x2 = 0.0001801, x1 = 0.0001534	0.227	0.223	0.228	0.224	0.224
x2 = 0.0001801, x1 = 0.0001747	0.24	0.235	0.239	0.238	0.235
x2 = 0.0001801, x1 = 0.0001956	0.251	0.248	0.247	0.249	0.249
x2 = 0.0001801, x1 = 0.0002165	0.272	0.27	0.274	0.259	0.26
x2 = 0.0001801, x1 = 0.0002578	0.293	0.288	0.293	0.277	0.285
x2 = 0.0001801, x1 = 0.0002984	0.313	0.306	0.315	0.301	0.31
x2 = 0.0001801, x1 = 0.0003383	0.328	0.328	0.335	0.321	0.332
x2 = 0.0001801, x1 = 0.0003776	0.348	0.345	0.353	0.34	0.351
x2 = 0.0001801, x1 = 0.0004164	0.365	0.368	0.37	0.357	0.374
x2 = 0.0001801, x1 = 0.0004544	0.385	0.383	0.388	0.381	0.392
x2 = 0.0001801, x1 = 0.0004919	0.406	0.401	0.407	0.397	0.413
x2 = 0.0001801, x1 = 0.0005289	0.42	0.416	0.427	0.42	0.431
x2 = 0.0001801, x1 = 0.0005653	0.437	0.435	0.44	0.433	0.455
x2 = 0.0001801, x1 = 0.0006012	0.451	0.452	0.46	0.457	0.471
x2 = 0.0001801, x1 = 0.0006365	0.469	0.469	0.476	0.472	0.493
x2 = 0.0001801, x1 = 0.0006715	0.485	0.485	0.496	0.491	0.51
x2 = 0.0001802, x1 = 2.245e-05	0.15	–	0.147	0.156	0.152
x2 = 0.0001802, x1 = 4.474e-05	0.165	0.159	0.162	0.167	0.163
x2 = 0.0001802, x1 = 6.683e-05	0.177	0.174	0.182	0.179	0.176

CC[n+]1ccccc1.N#C[N-]C#N + CCCO
Details	viscosity [mPa·s]
288.15 K, x2 = 0.1095	20.5
288.15 K, x2 = 0.1947	17.6
288.15 K, x2 = 0.8012	4.59
293.15 K, x2 = 0	22.1
293.15 K, x2 = 0.3011	13.3
293.15 K, x2 = 0.8012	4.05
298.15 K, x2 = 0.5008	7.45
298.15 K, x2 = 0.9	2.77
303.15 K, x2 = 0.4029	8.04
303.15 K, x2 = 0.702	4.19
308.15 K, x2 = 0.1947	9.87
308.15 K, x2 = 0.5008	5.9
308.15 K, x2 = 0.8012	2.92
308.15 K, x2 = 0.9	2.24
313.15 K, x2 = 0.1947	8.76
313.15 K, x2 = 0.5008	5.31
318.15 K, x2 = 0	11
318.15 K, x2 = 0.5008	4.8
318.15 K, x2 = 0.702	3.12
318.15 K, x2 = 0.9	1.84
